# Measurements from US20030203963A1, “Antimicrobial agent” (priority 2001, published 2003).
# How the values were obtained:
# [1] = system: Ps. fluorescens 327; test: Bioscreen growth inhibition test; format: cell-based, Pseudomonas fluorescens; conditions: BS010510, 24 h/30, APP20010213
# Experimental: (§1) For broth cultures and Bioscreen testing most bacteria were grown in Brain Heart Infusion (BHI, Oxoid, pH 7.4). Lactobacillus sake A10 was grown in de Man, Rogosa, Sharpe medium ([…], Oxoid). Yeasts were grown in Sabouraud Liquid medium (SLM, Oxoid). Most bacteria were cultured at 30° C. Lactic acid bacteria were grown on solid medium in enriched CO2 atmosphere. Clostridium species were grown in Reinforced Clostridial Medium (RCM) at 37° C. anaerobically. Brochothrix thermosphacta fungi and yeasts were grown at 25° C. Fungi were cultured on Malt Extract Agar (MEA, Oxoid).
# (§2) An automated Microbiology Reader Bioscreen C was used to measure growth curves of the strains in the presence and absence of APP. The Bioscreen C measures the development of turbidity (i.e. growth) kinetically by vertical photometry in 200 wells of a honeycomb microtitre plate, simultaneously. The system consists of a Bioscreen C analyser, which is an incubator and measurement unit, integrated with a PC, software (BioLink v 5.30), printer and a ‘Honeycomb 2’ cuvette multiwell plate. Growth curve data can be analysed within the BioLink software or exported to programs such as Excel.
# (§3) Broth culture media were dispensed in 270 μl volumes into the wells as directed. Serial dilutions of a filter-sterilised APP stock solution were then dispensed into the same wells, as appropriate. The wells were inoculated with 30 μl of an appropriately diluted overnight broth culture or spore suspension, to give a final inoculum level of […]. The tests were incubated in the Bioscreen C for either 24 h at 30° C., or 72 h at 25° C. (depending on the micro-organism under investigation) with readings taken every 20 minutes after the trays were shaken. After the incubation period was complete the data were exported to Excel for analysis.
# [2] = system: Ps. fluorescens 3756; test: Bioscreen growth inhibition test; format: cell-based, Pseudomonas fluorescens; conditions: BS010411, 24 h/30° C.
# Experimental: as §1, §2, §3
# [3] = system: Ps. fluorescens 1331; test: Bioscreen growth inhibition test; format: cell-based, Pseudomonas fluorescens; conditions: BS010510, 24 h/30, APP20010213
# Experimental: as §1, §2, §3
# [4] = system: Ps. fluorescens 10460; test: Bioscreen growth inhibition test; format: cell-based, Pseudomonas fluorescens; conditions: BS010510, 24 h/30, APP20010213
# Experimental: as §1, §2, §3
# [5] = system: Cl. tyrobutyricum 2753; test: Sensitivity testing for Clostridium species in cooked meat medium; format: cell-based; conditions: highest level tested 2000 ppm APP20010215, anaerobically at 37° C.
# Experimental: Stock solutions of APP215 (0.5, 1 and 2%) were prepared and filter-sterilised. Cooked meat medium (CMM, Oxoid) was prepared by distributing 1 g of the medium to individual test tubes, which were then filled with 8.9 ml water. After autoclaving 100 μl of the APP stock solutions were added, to give final concentrations of 0, 500, […] and 2000 ppm APP. The tests were inoculated with […] of Clostridium spores, to give an inoculum level of ca. 10 cfu/ml. The tubes were overlaid with 3 ml of 2% agar to maintain anaerobicity. The tests were incubated at 37° C., and examined daily for signs of growth (turbidity, gas production).
# [6] = system: Ps. fluorescens; test: Lab media at optimum temperature (summary); format: cell-based, Pseudomonas fluorescens
# Experimental: as §1, §2
# Broth culture media were dispensed in 270 μl volumes into the wells as directed. […] (depending on the micro-organism under investigation) with readings taken every 20 minutes after the trays were shaken. […]
# [7] = system: L monocytogenes S23; test: Chicken soup trial at 8° C.; format: cell-based, Listeria monocytogenes; conditions: chicken soup at 8° C., TCSM010521, APP215
# Text: (§4) A local supermarket brand of cream of chicken soup was used as a model food system. 600 g packs were purchased from the local supermarket. This was a ‘fresh home-made type’ of soup that was stored in the chill cabinet, with a short shelf life. It was chosen because it is a rich, nutritious food system containing a range of food components including meat, dairy and vegetable.
# (§5) Ingredients were labelled as: chicken stock (water, duck fat, chicken, salt, flavourings, yeast extracts, pork gelatine, glucose syrup, vegetable concentrate, milk protein, sugar, malto-dextrin, vegetable oil, citric acid, lactose, chicken fat), ilk, chicken (9%), cream (8%), onion, potato, vegetable oil, modified maize starch, wheat flour, lemon juice, salt, white pepper. pH 5.912. Protein: 3.3%; carbohydrate: 4.7%; fat: 7.2%; fibre: 0.2%; sodium: 0.1%
# (§6) For the test the soup was mixed 2:1 in water (to facilitate sampling and mixing) and sterilised by autoclaving at 121° C. for 15 minutes. For each experiment the pH of the soup was recorded; this was between pH 5.79-5.88.
# For TCS010521/8 (incubated at 8° C.), samples were prepared in 27.8 g quantities. 1.5 g of an APP stock solution was added, and the tests inoculated with 0.3 ml of a suitably diluted cell or spore suspension to give a final inoculum of ca. 10^3 cfu/g. APP was tested at 0, 500 and 1000 ppm, and batch number APP20010213 (at 169 mg/ml) was used. The tests were sampled by viable count and then incubated at 8° C. and tested on a twice-weekly basis.
# [8] = system: Salmonella S19; test: Chicken soup trial at 8° C.; format: cell-based, Salmonella sp.; conditions: 500-1000 ppm; chicken soup at 8° C., TCSM010521, APP215
# Text: as §4, §5, §6
# For TCS010521/8 (incubated at 8° C.), samples were prepared in 27.8 g quantities. 1.5 g of an APP stock solution was added, and the tests inoculated with 0.3 ml of a suitably diluted cell or spore suspension to give a final inoculum of ca. 10^3 cfu/g. APP was tested at 0, 500 and 1000 ppm, and batch number APP20010213 (at 169 mg/ml) was used. […]
# [9] = system: L. monocytogenes 358; test: Bioscreen growth inhibition test; format: cell-based, Listeria monocytogenes; conditions: BS010510, 24 h at 30° C., APP20010213
# Experimental: as §1, §2, §3
# [10] = system: L. monocytogenes S23; test: Bioscreen growth inhibition test; format: cell-based, Listeria monocytogenes; conditions: BS010411, 24 h at 30° C.
# Experimental: as §1, §2, §3
# [11] = system: L. monocyt. F6861; test: Bioscreen growth inhibition test; format: cell-based, Listeria monocytogenes; conditions: BS010510, 24 h at 30° C., APP20010213
# Experimental: as §1, §2, §3
# [12] = system: L. monocytogenes 272; test: Bioscreen growth inhibition test; format: cell-based, Listeria monocytogenes; conditions: BS010411, 24 h at 30° C.
# Experimental: as §1, §2, §3
# [13] = system: L. monocyt. Scott A; test: Bioscreen growth inhibition test; format: cell-based, Listeria monocytogenes; conditions: BS010510, 24 h at 30° C., APP20010213
# Experimental: as §1, §2, §3
smiles,measurement,setting,value
"O=C1CC(CO)OC=C1O (stereo not drawn) [APP, Ascopyrone P]",APP level causing total inhibition,[1],1000 ppm
same,APP level causing significant inhibition,[2]; APP 20010213,1000 ppm
same,APP level causing total inhibition,[2]; APP 20010213,2000 ppm
same,APP level causing significant inhibition,[2]; APP 20010215,1000 ppm
same,APP level causing total inhibition,[2]; APP 20010215,2000 ppm
same,APP level causing total inhibition,[3],1000 ppm
same,APP level causing significant inhibition,[4],1000 ppm
same,APP level causing total inhibition,[4],2000 ppm
same,Growth inhibition,[5],No growth inhibition
same,Total inhibition (effect on growth of target organism by 2000 ppm APP),[6],Ps. fluorescens
same,Effect on growth rate,[7]; 500 ppm,Slight reduction of growth rate with 500 and 1000 ppm
same,Effect on growth,[7]; 1000 ppm,No total inhibition by 1000 ppm
same,Effect on growth rate,[7]; 1000 ppm,Slight reduction of growth rate with 500 and 1000 ppm
same,Total inhibition for,[8],Total inhibition by 500-1000 ppm for 22 d
same,APP level causing total inhibition,[9],3000 ppm
same,APP level causing significant inhibition,[10]; APP20010213,2000 ppm
same,APP level causing total inhibition,[10]; APP20010213,4000 ppm
same,APP level causing significant inhibition,[10]; APP20010215,1000 ppm
same,APP level causing total inhibition,[10]; APP20010215,4000 ppm
same,APP level causing significant inhibition,[11],2000 ppm
same,APP level causing total inhibition,[11],3000 ppm
same,APP level causing significant inhibition,[12]; APP20010213,2000 ppm
same,APP level causing total inhibition,[12]; APP20010213,4000 ppm
same,APP level causing significant inhibition,[12]; APP20010215,2000 ppm
same,APP level causing total inhibition,[12]; APP20010215,>4000 ppm
same,APP level causing significant inhibition,[13],2000 ppm
same,APP level causing total inhibition,[13],3000 ppm
